System: patients with postpartum depression (PPD)
Assay: Clinical trial of inhaled 5-MeO-DMT (individualized dosing regimen) in postpartum depression; one patient, 6 mg then 12 mg
Settings: n=1; for BPRS Blunted affect improvement / BPRS Blunted affect score / BPRS Conceptual disorganization improvement / BPRS Conceptual disorganization score / BPRS Disorientation improvement / BPRS Disorientation score / BPRS Grandiosity improvement / BPRS Grandiosity score / BPRS Hallucinatory behaviour improvement / BPRS Hallucinatory behaviour score / BPRS Hostility improvement / BPRS Hostility score / BPRS Mannerisms and Posturing improvement / BPRS Mannerisms and Posturing score / BPRS Motor retardation improvement / BPRS Motor retardation score / BPRS Suspiciousness improvement / BPRS Suspiciousness score / BPRS Uncooperativeness improvement / BPRS Uncooperativeness score / BPRS Unusual Thought Content improvement / BPRS Unusual Thought Content score: baseline 1; for BPRS Excitement improvement / BPRS Excitement score: baseline 2; for BPRS Anxiety improvement / BPRS Anxiety score: baseline 7
Experimental: The single-arm, open-label clinical trial will involve 15 adult female patients with clinically diagnosed postpartum depression (PPD).
The second dose (12 mg) will only be administered if: • a. […] The 6 mg dose was safe and well-tolerated according to the investigator, • c. Any psychoactive effects (PsE) of the prior dose have subsided, and • d. Pre-dose vital parameters and forced expiratory volume in one second (FEV1) are in normal range, or if outside of the normal range, are not clinically significant according to the investigator. • 3. Similarly, a third dose (18 mg) will only be administered if: • a. […] The 12 mg dose was safe and well-tolerated according to the investigator, and • c. Any PsE of the prior dose have subsided, and • d. Pre-dose vital parameters and forced expiratory volume in one second (FEV1) are in normal range, or if outside of the normal range, are not clinically significant according to the investigator.
The patients will be assessed for a peak psychedelic experience (based on a patient-scored visual analogue scale, the PE scale), sedation, and other endpoints after dosing.
Follow-up visits are planned for Day 1, and Day 7 after the dosing day.
The following criteria must be met by all patients considered for clinical trial participation: • 1. Is female and in the age range between 18 and 45 years (inclusive) at screening. • 2. Has a body mass index (BMI) in the range of 18.5 and 35 kg/m^2 (inclusive) at screening. • 3. Meets the trial criteria for PPD as assessed by a trial psychiatrist or registered psychologist: • a. Diagnosis of Major Depressive Disorder without psychotic features, confirmed by the Mini-International Neuropsychiatric Interview (MINI), with peri-partum onset that began no earlier than gestation and no later than the first 4 weeks postpartum. • b. Has a Montgomery-Åsberg Depression Rating Scale (MADRS) total score of equal to or greater than 28 at screening and pre-dose on Day 0. • 6. […] Patients must have a negative pregnancy test at screening and on the pre-test day (Day −1). • 5. Is willing to delay start of other antidepressant or anxiety medication until after the end of the trial at Day 7 and agrees to keep any psychotherapy unchanged during the trial.
A potential patient who meets any of the following key exclusion criteria will be excluded from participation in this trial: • 1. Has, based on history, psychiatric assessment, and evaluation of the MINI, a current or prior diagnosis of bipolar disorder, a manic or hypomanic episode, a psychotic disorder, Major Depressive Disorder (MDD) or other mood disorder with psychotic features, obsessive compulsive disorder, post-traumatic stress disorder (PTSD), autism spectrum disorder, borderline personality disorder, schizophrenia, delusional disorder, paranoid personality disorder, schizoaffective disorder, clinically significant intellectual disability, or any other psychiatric comorbidity that renders the patient unsuitable for the trial according to the investigator's judgment. • 2. Has one or more first or second degree relatives with a current or previously diagnosed bipolar disorder, psychotic disorder or other mood disorder (including MDD) with psychotic features. • 3. Is in the judgement of a trial psychiatrist or registered psychologist, at significant risk for suicide based on history, psychiatric assessment, and evaluation of suicidal ideation and suicidal behaviour based on the Columbia-Suicide Severity Rating Scale (C-SSRS). • 4. Has taken anti-depressive medication within 14 days or 5 half-lives (whichever is longer) prior to dosing (exception: within the last 5 weeks in the case of fluoxetine). • 5.

## COc1ccc2[nH]cc(CCN(C)C)c2c1 [5-MeO-DMT]
Day 7, baseline 0
  MADRS Suicidal Thoughts improvement: 0
  MADRS Suicidal Thoughts score: 0
Day 7
  BPRS Blunted affect improvement: 0
  BPRS Blunted affect score: 1
  BPRS Conceptual disorganization improvement: 0
  BPRS Conceptual disorganization score: 1
  BPRS Disorientation improvement: 0
  BPRS Disorientation score: 1
  BPRS Grandiosity improvement: 0
  BPRS Grandiosity score: 1
  BPRS Hallucinatory behaviour improvement: 0
  BPRS Hallucinatory behaviour score: 1
  BPRS Hostility improvement: 0
  BPRS Hostility score: 1
  BPRS Mannerisms and Posturing improvement: 0
  BPRS Mannerisms and Posturing score: 1
  BPRS Motor retardation improvement: 0
  BPRS Motor retardation score: 1
  BPRS Suspiciousness improvement: 0
  BPRS Suspiciousness score: 1
  BPRS Uncooperativeness improvement: 0
  BPRS Uncooperativeness score: 1
  BPRS Unusual Thought Content improvement: 0
  BPRS Unusual Thought Content score: 1
  BPRS Excitement improvement: 1
  BPRS Excitement score: 1
  BPRS Anxiety improvement: 6
  BPRS Anxiety score: 1
Day 7, baseline 3
  MADRS Inability to Feel improvement: 3
  MADRS Inability to Feel score: 0
  MADRS Lassitude improvement: 3
  MADRS Lassitude score: 0
Day 7, baseline 4
  MADRS Pessimistic Thoughts improvement: 4
  MADRS Pessimistic Thoughts score: 0
  MADRS Reported sadness improvement: 4
  MADRS Reported sadness score: 0
Day 7, baseline 5
  BPRS Emotional withdrawal improvement: 4
  BPRS Emotional withdrawal score: 1
  MADRS Apparent sadness improvement: 5
  MADRS Apparent sadness score: 0
  MADRS Inner Tension improvement: 4
  MADRS Inner Tension score: 1
  MADRS Reduced Sleep improvement: 5
  MADRS Reduced Sleep score: 0
Day 7, baseline 6
  BPRS Depressive Mood improvement: 5
  BPRS Depressive Mood score: 1
  BPRS Guilt feelings improvement: 5
  BPRS Guilt feelings score: 1
  BPRS Somatic Concern improvement: 5
  BPRS Somatic Concern score: 1
  BPRS Tension improvement: 5
  BPRS Tension score: 1
Day 7 vs Day 0
  BIMF functional domain Adjustment % improvement: 20.00%
  BIMF functional domain Adjustment Δ: 1
  BIMF functional domain Infant Care % improvement: 0.00%
  BIMF functional domain Infant Care Δ: 0
  BIMF functional domain Management % improvement: 18%
  BIMF functional domain Management Δ: 5
  BIMF functional domain Mother-Child Interaction Δ: 2
  BIMF functional domain Psychological Well-being Δ: 9
  BIMF functional domain Self-Care % improvement: 44%
  BIMF functional domain Self-Care Δ: 4
  BIMF functional domain Social Support Δ: 1
  BIMF item 10 (I trust my own feelings (instincts) when taking care of my baby) Δ: 1
  BIMF item 11 (I take a little time each week to do something for myself) Δ: 1
  BIMF item 16 (I worry about how other people judge me (as a mother)) Δ: 2
Day 7 vs Day 0 (92 to 105)
  BIMF total score percentage improvement: 14%
Discharge
  BPRS Blunted affect improvement: 0
  BPRS Blunted affect score: 1
  BPRS Conceptual disorganization improvement: 0
  BPRS Conceptual disorganization score: 1
  BPRS Disorientation improvement: 0
  BPRS Disorientation score: 1
  BPRS Grandiosity improvement: 0
  BPRS Grandiosity score: 1
  BPRS Hallucinatory behaviour improvement: 0
  BPRS Hallucinatory behaviour score: 1
  BPRS Hostility improvement: 0
  BPRS Hostility score: 1
  BPRS Mannerisms and Posturing improvement: 0
  BPRS Mannerisms and Posturing score: 1
  BPRS Motor retardation improvement: 0
  BPRS Motor retardation score: 1
  BPRS Suspiciousness improvement: 0
  BPRS Suspiciousness score: 1
  BPRS Uncooperativeness improvement: 0
  BPRS Uncooperativeness score: 1
  BPRS Unusual Thought Content improvement: 0
  BPRS Unusual Thought Content score: 1
  BPRS Excitement improvement: 1
  BPRS Excitement score: 1
  BPRS Anxiety improvement: 6
  BPRS Anxiety score: 1
Discharge, baseline 5
  BPRS Emotional withdrawal improvement: 4
  BPRS Emotional withdrawal score: 1
Discharge, baseline 6
  BPRS Depressive Mood improvement: 5
  BPRS Depressive Mood score: 1
  BPRS Guilt feelings improvement: 5
  BPRS Guilt feelings score: 1
  BPRS Somatic Concern improvement: 5
  BPRS Somatic Concern score: 1
  BPRS Tension score: 1
Shortly after administration
  Changes in vital parameters: temporary, clinically non-relevant increase in heart rate and blood pressure
